The values that follow come from US20200170990A1, “METHOD FOR TREATING SCHNITZLER'S SYNDROME” (OLATEC THERAPEUTICS LLC, priority 2017, published 2020).

For data set [1], the system named is caspase-1 (p10) in J774A.1 cells. Nature of the data set: Western blot for caspase-1 (p45 and p10) in J774A.1 cells after LPS/ATP stimulation. It is filed as cell-based, mouse. As for the experimental part:
(§1) J774A.1 murine macrophages cells were stimulated with 1 μg/ml lipopolysaccharide (LPS) for 4 hours and either nigericin (NIG, 10 μM) or ATP (5 mM) was added for 1 hour. Dapansutrile OLT1177® was added to the cells either 30 minutes following LPS stimulation or at the same time as ATP.
A subunit of activated caspase-1 (p10) was reduced in J774A.1 cells in the presence of dapansutrile.
(In general: In western blotting, separated proteins are transferred to a membrane and probed.)

Data set [2] relates to caspase-1 activity in J774A.1 cells. Nature of the data set: Caspase-1 activity in J774A.1 cell lysates after LPS and nigericin stimulation. It is filed as cell-based, mouse. Particulars: 50 μM, LPS/NIG set at 100%, n=3, p<0.05. As for the experimental part:
as §1
Caspase-1 activity is expressed as percent change of the mean value of each assay (n=3) with LPS/NIG set at 100%. Caspase-1 (Cas-1) activity was reduced by 35% (p<0.05) in an enzymatic assay of cell lysate from stimulated cells in the presence of dapansutrile, comparing with control.

For data set [3], the system named is zymosan-induced knee joint swelling in mice. Kind of data set: Zymosan-induced knee arthritis in mice: macroscopic joint swelling. Format: in vivo. As to conditions: 600 mg/kg oral gavage, zymosan 180 μg intra-articular, 24 hours, vs vehicle-treated mice. As for the experimental part:
Zymosan injected directly into the knee joint of mice elicits an inflammatory response and is used as a model of arthritis (Verschure et al, Ann. Rheum Dis. 53:455-460, 1994). Endpoints measured in this model include knee joint swelling score, cytokine levels in the synovial tissue and microscopic pathology of the knee.
(§2) Arthritis was induced in mice by intra-articular injection of zymosan (180 μg) into the knee joint (at time zero) of both knees in each mouse. Mice were treated by oral gavage with vehicle (water, n=5) or dapansutrile in vehicle (600 mg/kg, n=4) at times −25 hr, −13 hr, and −1 hr. After zymosan injection at time zero, mice were further treated with vehicle or dapansutrile (600 mg/kg) at times +11 hr and +23 hr. Mice were sacrificed 24 hours following the Zymosan intraarticulr idministration.
Macroscopic joint swelling was assessed on all knees after the skin is removed using a scoring system ranging from 0 to 3, with 0 being no swelling and 3 being severe swelling.

Data set [4] deals with IL-1β release from human monocytes-derived macrophages. Kind of data set: Suppression of IL-1β release from human monocytes-derived macrophages (LPS priming, nigericin release, ELISA). It is filed as cell-based. As for the experimental part:
Peripheral blood mononuclear cells (PBMCs) were isolated from blood of 11 healthy human donors and differenciates in macrophages using GM-CSF (5 ng/ml) for 5 days. They were stimulated with 1 μg/mL with lipopolysaccharide (LPS, priming phase) at time zero. At 30 minutes, they were incubated with different concentrations of dapansutrile (OLT1177®) from 0.001-50 μM. At 4 hours, 10 μM of nigericin (NIG, release phase) was added. At the end of an 5 hour incubation period, the supernatant was harvested and assayed for IL-1β using respective ELISA kits following manafacturer's protocols.

For data set [5], the system named is mouse IL-1β in synovial membrane. Kind of data set: Zymosan-induced knee arthritis in mice: IL-1β in synovial membrane (ELISA). It is filed as in vivo. As to conditions: 600 mg/kg oral gavage, 24 hours, vs untreated mice. As for the experimental part: as §2
In addition, synovial membrane was taken from one knee per mouse and the cells were lysed for measurement of mouse IL-1β, using an ELISA kit from R&D Systems, Inc., following manufacturer's protocols. The results are shown as mean±standard error of mean and statistical evaluation is performed.
For orientation: ELISA stands for enzyme-linked immunosorbent assay.

The conditions of data set [6]: in vivo; cited from earlier work.

Take `CS(=O)(=O)CCC#N` [dapansutrile, 3-methanesulfonylpropionitrile]: the “Subunit of activated caspase-1 (p10), Western blot” value in data set [1] is “reduced”. Further, the “Reduction of caspase-1 activity” value in data set [2] was found to be 35%. In addition, the “Macroscopic joint swelling (score 0 to 3)” value in data set [3] is reported as “significant reduction in the joint swelling”. Moreover, in data set [4] (LPS priming, nigericin release, compared to control), the “Release of IL-1β from stimulated monocytes-derived macrophages” value is listed as “suppresses the release of IL-1β”. In data set [4] (human monocytes-derived macrophages, LPS 1 μg/mL + nigericin 10 μM, tested 0.001-50 μM), the “Concentration at which maximum suppression effect on IL-1β release was observed” value was determined as 1 µM. Besides, the “Level of IL-1β in synovial membrane” value in data set [5] is on record as “significantly reduced”.
As for “Canakinumab: fully human selective monoclonal anti-IL-1β antibody”, the Half-life in data set [6] is 28 days.
